These results are taken from ChEMBL document CHEMBL1123983, “Bis(4-hydroxyphenyl)[2-(phenoxysulfonyl)phenyl]methane: isolation and structure elucidation of a novel estrogen from commercial preparations of phenol red (phenolsulfonphthalein)” (J Med Chem, 1988).

The target in this test is Estrogen receptor (Homo sapiens) (UniProt Q92731+P03372). As to the kind of experiment: Estrogen-related induction of progesterone receptor expression in MCF-7 cells at 10e-6 M. It counts as cell-based. To be noted: MCF7.

Compound `O=S(=O)(Oc1ccccc1)c1ccccc1C(c1ccc(O)cc1)c1ccc(O)cc1` had a PR level, % of control of 1680%.
